According to article PMC11045757, “Group 3 medulloblastoma transcriptional networks collapse under domain specific EP300/CBP inhibition” (Nature Communications, 2024):
Where “and” joins values, the source holds several entries; their conditions need not be identical. Equal values may be shown once. Read-outs that look alike come from different tables or passages of the source.

Columns and labels:
[1] = target: T1, CBP bromodomain (Homo sapiens, UniProt Q92793); assay: Differential scanning fluorimetry (DSF) thermal shift; assay type: binding; conditions: for ∆Tm (°C) CBP / ΔTm (°C) CBP: DSF; for ∆Tm (°C) CBP: 5 μM protein, 100 μM compound, three independent experiments, average ± SD
T1 construct: CBP (residues 1081-1197); 6xHis (cleaved yes); host or cells: E. coli BL21 (DE3) RIL
T1 sequence (Q92793 1081-1197): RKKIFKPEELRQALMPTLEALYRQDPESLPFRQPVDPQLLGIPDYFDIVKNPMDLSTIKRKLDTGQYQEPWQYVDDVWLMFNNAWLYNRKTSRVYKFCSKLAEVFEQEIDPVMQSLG
Description: (§1) After 18 h growth, the culture was harvested by centrifugation at 6000 × g for 25 min and stored at -80 °C. Harvested cell pellets were re-suspended in 50 mM Na/K phosphate buffer (pH 7.4) containing 100 mM NaCl, 40 mM imidazole, 0.01% w/v lysozyme and 0.01% v/v Triton X-100 at 4 °C for 1 h, subjected to sonication and the lysate was clarified by centrifugation (30,000 × g for 45 min at 4 °C). Proteins were purified by FPLC at 4 °C using columns and chromatography materials from GE Healthcare. […] Proteins were purified to homogeneity by size exclusion chromatography using Superdex 75 equilibrated with elution buffer (50 mM HEPES pH 7.5, 100 mM NaCl, 2 mM DTT). […] Pool fractions were combined, concentrated to 10–12 mg/ml, and aliquots were flash-frozen in liquid N2 and stored at −80 °C.
(§2) DSF experiments were performed with an Applied Biosystem StepOnePlus real-time PCR system (Thermo Fisher Scientific) using 96-well format plates, assayed in quadruplicate. For thermal shift determination, 5 μM protein was mixed with 100 μM compound in 50 mM HEPES, pH 7.5, 150 mM NaCl, 2 mM DTT, 2% DMSO, 5X SYPRO Orange (Thermo Fisher Scientific) in 20 μL reaction volumes.

[2] = test system: CBP bromodomain; assay: as above; assay type: binding; conditions: ΔTm (CBP)/ΔTm(BRD4)
Description: as §1, §2

[3] = target: T2, EP300 bromodomain (Homo sapiens, UniProt Q09472); assay: as above; assay type: binding; conditions: DSF
T2 construct: 6xHis (cleaved yes); host or cells: E. coli BL21 (DE3) RIL
T2 sequence (Q09472 1048-1161): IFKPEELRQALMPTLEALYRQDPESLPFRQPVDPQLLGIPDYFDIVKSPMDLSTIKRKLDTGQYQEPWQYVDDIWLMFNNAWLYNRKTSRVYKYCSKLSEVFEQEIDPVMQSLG
Description: (§3) At OD600 of 0.6, the culture was cooled down to 18 °C and induced with 0.1 mM IPTG. After 18 h growth, the culture was harvested by centrifugation at 6000 × g for 25 min and stored at -80 °C. Harvested cell pellets were re-suspended in 50 mM Na/K phosphate buffer (pH 7.4) containing 100 mM NaCl, 40 mM imidazole, 0.01% w/v lysozyme and 0.01% v/v Triton X-100 at 4 °C for 1 h, subjected to sonication and the lysate was clarified by centrifugation (30,000 × g for 45 min at 4 °C). Proteins were purified by FPLC at 4 °C using columns and chromatography materials from GE Healthcare. […] Proteins were purified to homogeneity by size exclusion chromatography using Superdex 75 equilibrated with elution buffer (50 mM HEPES pH 7.5, 100 mM NaCl, 2 mM DTT). All BRDs eluted as monomeric protein and were of crystallization grade quality (>95% purity as judged by SDS-PAGE). Pool fractions were combined, concentrated to 10–12 mg/ml, and aliquots were flash-frozen in liquid N2 and stored at −80 °C.
(§4) DSF experiments were performed with an Applied Biosystem StepOnePlus real-time PCR system (Thermo Fisher Scientific) using 96-well format plates, assayed in quadruplicate. For thermal shift determination, 5 μM protein was mixed with 100 μM compound in 50 mM HEPES, pH 7.5, 150 mM NaCl, 2 mM DTT, 2% DMSO, 5X SYPRO Orange (Thermo Fisher Scientific) in 20 μL reaction volumes. Reaction mixtures were heated from 25 to 95 °C at 1 °C/min with fluorescence readings every 0.5 °C at 610 nm. The observed thermal shift (ΔTm) was recorded as the difference between the Tm of sample and DMSO reference wells.

[4] = target: T3, BRD4-BD1 (BRD4-1) (Homo sapiens, UniProt O60885); assay: as above; assay type: binding; conditions: DSF; for ∆Tm (°C) BRD4-1: 5 μM protein, 100 μM compound, three independent experiments, average ± SD
T3 construct: BRD4-BD1 (residues 44-168); 6xHis (cleaved yes); host or cells: E. coli BL21 (DE3) RIL
Description: as §3, §4

[5] = test system: HDMB03 (HDMBO3) group 3 medulloblastoma cells; assay: CellTiter-Glo dose-response growth assay; assay type: cell-based; conditions: HDMBO3 G3MB cell growth; read-out: IC50 (nM) HDMBO3
Description: CellTiter-Glo assay was performed as per the manufacturer’s instructions, at the noted timepoint after compound treatment or plating. For Kelly, TE617T, RhJT, NCIH2122, NCIH650 and 143B, 500 cells were plated in normal growth media per well in a 384-well plate (Corning). HDMB03 and MB002 cells were plated in growth media at 500 cells/well in a 384-well plate. […] Cells were incubated for the noted timepoints prior to performing CellTiter-Glo assay as per the manufacturer’s instructions, and reading plates on an Envision 2104 microplate reader.

[6] = target: GFP-tagged CBP bromodomain (Homo sapiens, UniProt Q92793); assay: Microscale thermophoresis (MST); assay type: binding; conditions: for Response (Dose Response Curve): MST raw response
Chain of GFP-tagged CBP bromodomain (Q92793 1085-1192 limits assumed): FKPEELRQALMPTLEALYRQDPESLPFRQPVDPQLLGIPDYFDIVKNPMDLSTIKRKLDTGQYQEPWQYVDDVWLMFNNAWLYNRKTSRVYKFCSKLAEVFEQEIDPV
Description: MST experiments were performed in a Monolith NT.115 Pico instrument (NanoTemper Technologies) following published procedures. […] MST traces were recorded using standard parameters: 5 s MST power off, 30 s MST power on and 5 s MST power off. Measurements were taken at -1-0 s (cold region) and 10 s (hot region) and data were analyzed using the NTAnalysis software.

COC1CCC(n2c(C3CCCC(=O)N3c3cccc(C(F)F)c3)nc3cc(-c4c(C)noc4C)ccc32)CC1 (centres unmarked) [Compound 3]
∆Tm (°C) CBP [1]: 15.7 ± 0.13 °C | ∆Tm (°C) CBP ([1]; listed as iCBP-1): 15.7 °C | ΔTm (°C) CBP ([1]; Figure 3A, CBP bromodomain): 15.7 °C | ΔTm (°C) CBP ([1]; Figure 3B, CBP): 15.7 °C | DSF ΔTm (°C) ([1]; Figure 3C, DSF (values equal CBP column)): 15.7 °C | Ratio CBP/BRD4 of ∆Tm [2]: 2.8 | ∆Tm (°C) EP300 ([3]; 5 μM protein, 100 μM compound, three independent experiments, average ± SD): 15.2 ± 0.43 °C | ΔTm (°C) EP300 ([3]; Figure 3B, EP300): 15.2 °C | ∆Tm (°C) BRD4-1 [4]: 5.6 ± 0.18 °C | ∆Tm (°C) BRD4-1 ([4]; listed as iCBP-1): 5.6 °C | ΔTm (°C) BRD4-BD1 ([4]; Figure 3A, BRD4-BD1): 5.6 °C | IC50 [5]: 156 ± 63 nM | Response (Dose Response Curve) ([6]; Dose 7.6294e-11, single replicate run, listed as iCBP-1): 853.223 and 857.66 and 855.66 | Response (Dose Response Curve) ([6]; Dose 1.52588e-10, single replicate run, listed as iCBP-1): 855.736 and 856.23 and 855.826 | Response (Dose Response Curve) ([6]; Dose 3.05176e-10, single replicate run, listed as iCBP-1): 853.445 and 855.178 and 855.494 | Response (Dose Response Curve) ([6]; Dose 6.10352e-10, single replicate run, listed as iCBP-1): 856.427 and 856.757 and 853.917 | Response (Dose Response Curve) ([6]; Dose 1.2207e-9, single replicate run, listed as iCBP-1): 856.018 and 857.281 and 855.418 | Response (Dose Response Curve) ([6]; Dose 2.44141e-9, single replicate run, listed as iCBP-1): 854.643 and 857.895 and 854.619 | Response (Dose Response Curve) ([6]; Dose 4.88281e-9, single replicate run, listed as iCBP-1): 855.403 and 855.962 and 856.044 | Response (Dose Response Curve) ([6]; Dose 9.76563e-9, single replicate run, listed as iCBP-1): 854.71 and 855.519 and 854.572 | Response (Dose Response Curve) ([6]; Dose 1.95313e-8, single replicate run, listed as iCBP-1): 854.478 and 856.32 and 852.68 | Response (Dose Response Curve) ([6]; Dose 3.90625e-8, single replicate run, listed as iCBP-1): 853.805 and 853.804 and 852.557 | Response (Dose Response Curve) ([6]; Dose 7.8125e-8, single replicate run, listed as iCBP-1): 851.041 and 853.265 and 851.047 | Response (Dose Response Curve) ([6]; Dose 1.5625e-7, single replicate run, listed as iCBP-1): 849.783 and 852.179 and 850.016 | Response (Dose Response Curve) ([6]; Dose 3.125e-7, single replicate run, listed as iCBP-1): 847.514 and 851.349 and 849.816 | Response (Dose Response Curve) ([6]; Dose 6.25e-7, single replicate run, listed as iCBP-1): 850.56 and 852.488 and 847.121 | Response (Dose Response Curve) ([6]; Dose 1.25e-6, single replicate run, listed as iCBP-1): 851.062 and 851.994 and 849.472 | Response (Dose Response Curve) ([6]; Dose 2.5e-6, single replicate run, listed as iCBP-1): 852.183 and 853.073 and 851.642 | Kd ([6]; MST, single replicate run, target clGFP-CBPBRD, TargetConcentration 5e-8, MST-Power Medium, unit inferred, listed as iCBP-1, read-out: Kd (Fit Results, Fit Model: Kd)): 11.6 nM and 7.49 nM and 11.5 nM | Bound (Fit Results) ([6]; fitted MST response of bound state, single replicate run, target clGFP-CBPBRD 5e-8, listed as iCBP-1): 850.224 and 852.177 and 849.456 | Unbound (Fit Results) ([6]; fitted MST response of unbound state, single replicate run, target clGFP-CBPBRD 5e-8, listed as iCBP-1): 855.236 and 856.83 and 855.351 | Kd ([6]; three independent MST experiments, average ± SD, read-out: Kd (nM) CBP): 12.1 ± 4.9 nM
